Measurements: patent EP3046573B1, “AMYLIN ANALOGUES” (Zealand Pharma A/S, priority 2013, dated 2015)
Numbered stars: 1 amine (or outer) side, 2 acyl side, 3 side chain; on linkers, the order of the positions; unused ones are H or OH. Bridge positions count the residues as written; N and C are the ends. Square brackets hold non-standard residues; d marks the D form. Peptide text beside a SMILES is read from it. * marks the point of attachment. C20 diacid = O=C(O)CCCCCCCCCCCCCCCCCCC(=O)*; γGlu = O=C(O)[C@H](CCC(=O)[*:2])N[*:1]; NMeI = CC[C@H](C)[C@H](NC)C(=O)O; Sar = CNCC(=O)O

Tests used:
[1] = Solubility assessment (turbidity absorbance at 325 nm); type: physicochemical; conditions: stock 2 mg/ml diluted 1:1, ambient temperature (typically 25°C), n=1; for Solubility, Acetate buffer pH 4: 100 mM acetate buffer pH 4.0; for Solubility, Acetate buffer pH 5: 100 mM acetate buffer pH 5.0; for Solubility, Histidine buffer pH 6: 100 mM histidine buffer pH 6.0; for Solubility, Histidine buffer pH 7: 100 mM histidine buffer pH 7.0; for Solubility, Phosphate buffer pH 6: 100 mM phosphate buffer pH 6.0; for Solubility, Phosphate buffer pH 7: 100 mM phosphate buffer pH 7.0; for Solubility, Phosphate buffer pH 7.5: 100 mM phosphate buffer pH7.5
In short: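 Turbidity read as absorbance at 325 nm (also 280 nm), single samples at ambient temperature (typically 25°C); ≤ 0.02 units counts as ≥ 1 mg/ml soluble. Samples made by 1:1 dilution of a 2 mg/ml acidic stock into 100 mM acetate, histidine or phosphate buffers, pH 4.0–7.5.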

[2] = target: T1, human calcitonin receptor (hCTR2) (Homo sapiens, UniProt P30988); experiment: hCTR2 assay: induction of cAMP (AlphaScreen cAMP Assay kit) in COS7 cells expressing hCTR2; type: cell-based; conditions: cAMP induction in COS7 cells expressing hCTR2; average of a minimum of 3 determinations; read-out: hCTR2 EC50
T1 construct: expressed in transfected cells
T1 sequence (P30988 25-474): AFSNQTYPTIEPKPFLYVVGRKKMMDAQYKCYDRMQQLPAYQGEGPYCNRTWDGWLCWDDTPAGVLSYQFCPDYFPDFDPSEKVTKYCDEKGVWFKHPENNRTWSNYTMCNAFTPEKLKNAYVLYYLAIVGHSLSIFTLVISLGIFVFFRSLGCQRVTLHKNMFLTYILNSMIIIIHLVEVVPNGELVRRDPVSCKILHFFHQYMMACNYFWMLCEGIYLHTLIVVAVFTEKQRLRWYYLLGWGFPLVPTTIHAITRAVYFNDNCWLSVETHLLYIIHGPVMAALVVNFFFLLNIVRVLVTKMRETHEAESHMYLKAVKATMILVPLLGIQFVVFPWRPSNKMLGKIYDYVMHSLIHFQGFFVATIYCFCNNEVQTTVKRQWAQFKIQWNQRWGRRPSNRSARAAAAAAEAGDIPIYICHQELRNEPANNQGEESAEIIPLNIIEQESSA
In short: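 Peptide-induced cAMP in hCTR2-expressing COS7 cells, 15 min at 37° C with phosphodiesterase inhibitor IBMX (100 µM), detected by AlphaScreen; potency from 4PL curves.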

| Structure (SMILES) | Solubility, Acetate buffer pH 4 [1] | Solubility, Acetate buffer pH 5 [1] | Solubility, Histidine buffer pH 6 [1] | Solubility, Histidine buffer pH 7 [1] | Solubility, Phosphate buffer pH 6 [1] | Solubility, Phosphate buffer pH 7 [1] | Solubility, Phosphate buffer pH 7.5 [1] | EC50 [2] |
| --- | --- | --- | --- | --- | --- | --- | --- | --- |
| CC[C@H](C)[C@@H](C(=O)N[C@@H](CC(C)C)C(=O)N1CCC[C@H]1C(=O)N1CCC[C@H]1C(=O)N[C@H](C(=O)N[C@@H](CC(N)=O)C(=O)N[C@H](C(=O)NCC(=O)N[C@@H](CO)C(=O)N[C@@H](CC(N)=O)C(=O)N[C@H](C(=O)N1CCC[C@H]1C(N)=O)[C@@H](C)O)C(C)C)[C@@H](C)O)N(C)C(=O)CN(C)C(=O)[C@H](Cc1ccccc1)NC(=O)[C@H](CC(N)=O)NC(=O)[C@H](CC(N)=O)NC(=O)[C@H](CO)NC(=O)[C@H](CO)NC(=O)[C@H](Cc1c[nH]cn1)NC(=O)[C@H](Cc1c[nH]cn1)NC(=O)[C@H](CC(C)C)NC(=O)[C@H](Cc1ccccc1)NC(=O)[C@H](CCC(=O)O)NC(=O)[C@H](C)NC(=O)[C@H](CC(C)C)NC(=O)[C@H](CCCNC(=N)N)NC(=O)[C@H](CCC(N)=O)NC(=O)[C@@H](NC(=O)[C@H](C)NC(=O)[C@@H]1CSSC[C@H](NC(=O)[C@H](CCCNC(=N)N)NC(=O)CC[C@H](NC(=O)CCCCCCCCCCCCCCCCCCC(=O)O)C(=O)O)C(=O)N[C@@H](CC(N)=O)C(=O)N[C@@H]([C@@H](C)O)C(=O)N[C@@H](C)C(=O)N[C@@H]([C@@H](C)O)C(=O)N1)[C@@H](C)O [Compound 176, [19CD]-isoGlu-RC()NTATC()ATQRLAEFLHHSSNNF-Gly(Me)-Ile(Me)-LPPTNVGSNTP-NH2] ({C20 diacid-γGlu}-RCNTATCATQRLAEFLHHSSNNF[Sar][NMeI]LPPTNVGSNTP-NH2; disulfide 2-7) | SS (SS indicates solubility ≥ 1mg/ml) | SS (SS indicates solubility ≥ 1mg/ml) | SS (SS indicates solubility ≥ 1mg/ml) | SS (SS indicates solubility ≥ 1mg/ml) | SS (SS indicates solubility ≥ 1mg/ml) | SS (SS indicates solubility ≥ 1mg/ml) | SS (SS indicates solubility ≥ 1mg/ml) | 120 pM |
| CC[C@H](C)[C@H](NC(=O)[C@@H]1CCCN1C(=O)CNC(=O)[C@H](Cc1ccccc1)NC(=O)[C@H](CC(N)=O)NC(=O)[C@H](CC(N)=O)NC(=O)[C@H](CO)NC(=O)[C@H](CO)NC(=O)[C@H](Cc1c[nH]cn1)NC(=O)[C@H](Cc1c[nH]cn1)NC(=O)[C@H](CC(C)C)NC(=O)[C@H](Cc1ccccc1)NC(=O)[C@H](CCC(=O)O)NC(=O)[C@H](C)NC(=O)[C@H](CC(C)C)NC(=O)[C@H](CCCNC(=N)N)NC(=O)[C@H](CCC(N)=O)NC(=O)[C@@H](NC(=O)[C@H](C)NC(=O)[C@@H]1CSSC[C@H](NC(=O)[C@H](CCCNC(=N)N)NC(=O)CC[C@H](NC(=O)CCCCCCCCCCCCCCCCCCC(=O)O)C(=O)O)C(=O)N[C@@H](CC(N)=O)C(=O)N[C@@H]([C@@H](C)O)C(=O)N[C@@H](C)C(=O)N[C@@H]([C@@H](C)O)C(=O)N1)[C@@H](C)O)C(=O)N[C@@H](CC(C)C)C(=O)N1CCC[C@H]1C(=O)N1CCC[C@H]1C(=O)N[C@H](C(=O)N[C@@H](CC(N)=O)C(=O)N[C@H](C(=O)NCC(=O)N[C@@H](CO)C(=O)N[C@@H](CC(N)=O)C(=O)N[C@H](C(=O)N1CCC[C@H]1C(N)=O)[C@@H](C)O)C(C)C)[C@@H](C)O [NN96, N-α-[(S)-4-carboxy-4-(19-carboxynonadecanoylamino)butyryl]-[Arg1,Glu14,His17,Pro37]-pramlintide, reference compound] ({C20 diacid-γGlu}-RCNTATCATQRLAEFLHHSSNNFGPILPPTNVGSNTP-NH2; disulfide 2-7) | SS (SS indicates solubility ≥ 1mg/ml) | SS (SS indicates solubility ≥ 1mg/ml) | SS (SS indicates solubility ≥ 1mg/ml) | SS (SS indicates solubility ≥ 1mg/ml) | SS (SS indicates solubility ≥ 1mg/ml) | SS (SS indicates solubility ≥ 1mg/ml) | SS (SS indicates solubility ≥ 1mg/ml) | 89 pM |
